Measured values from article PMC11505670, “Four newly synthesized enones induce mitochondrial-mediated apoptosis and G2/M cell cycle arrest in colorectal and cervical cancer cells” (RSC Advances, 2024).

Assays:
Type in all cases: cell-based, human
HeLa cells [1] = assay: MTT cytotoxicity assay, HeLa; settings: for Selectivity index (SI): IC50 healthy cells (MRC-5)/IC50 tumor cells; for Cytotoxicity range: concentration range 1–100 μM; for IC50: Homo sapiens, MTT
Procedure: (§1) To examine and compare the antiproliferative activities of four enones, the cytotoxicity of the compounds was assessed by the 3-(4,5-dimethylthiazol-2-yl)-2,5-diphenyltetrazolium bromide (MTT) assay[9] in, colon cancer cells (HCT-116), cervical cancer cell line (HeLa) and human fibroblast lung cell line (MRC-5) that was used as a healthy control cell line. After trypsinization, seeded (5 × 10^3 cells per well in 96-well plates) cells were treated with different concentrations of the investigated enones (1, 3, 10, 30, and 100 μM) during 48 and 72 h period incubation period +37 °C and 5–6.5% CO2. After the incubation period, the medium was removed and MTT solution (5 mg ml^−1) was added to the wells.
(§2) After a 3 hour incubation with the MTT solution, the resulting formazan crystals were dissolved in DMSO (67-68-5, Merck). Absorbance was subsequently measured at 595 nm using a microplate reader (Zenith 3100, Anthos Labtech Instruments). The percentage of cytotoxic cells was determined using the formula: cytotoxicity (%) = (1 − (exp. group (ABS))/(control group (ABS)) × 100). IC50 values were calculated using GraphPad Prism 10 software. The selectivity index (SI) was determined using the formula: SI?IC50 value for healthy cells/IC50 value for tumor cells.[9]

HCT-116 cells [2] = assay: MTT cytotoxicity assay, HCT-116; settings: for Cytotoxicity range: concentration range 1–100 μM; for Selectivity index (SI): IC50 healthy cells (MRC-5)/IC50 tumor cells; for IC50: Homo sapiens, MTT
Procedure: as §1, §2

MRC-5 cells = assay: MTT cytotoxicity assay, MRC-5 healthy control cells; settings: Homo sapiens
Procedure: as §1, §2

HCT-116 cells [3] = assay: Annexin V-FITC/7-AAD apoptosis flow cytometry, HCT-116; settings: IC50 concentration, 48 h
Procedure: (§3) The type of cell death was assessed using flow cytometry using FITC Annexin V Apoptosis Detection Kit with 7-AAD (640922, Bio legend).[8] […] After treatment, cells were harvested, washed with PBS (resuspended in 100 μl of ice-cold 1X binding buffer), stained (20 μl of 7-AAD and 10 μl of Annexin V-FITC), and incubated in the dark for 15 min at +4 °C. After incubation, 400 μl of binding buffer was added and the samples were analyzed using flow cytometer Cytomics FC500 (Beckman Coulter, USA). Data analysis was performed using FlowJo Software and presented with histogram and dot plots.

HeLa cells [4] = assay: Annexin V-FITC/7-AAD apoptosis flow cytometry, HeLa; settings: IC50 concentration, 48 h
Procedure: as §3

[5] = tested on: Bax and Bcl-2 in HCT-116 cells; assay: Flow cytometric analysis of Bax and Bcl-2 expression, HCT-116; settings: HCT-116, IC50 concentration, 48 h, from MFI
Procedure: (§4) Cells were washed with PBS, fixed, permeabilized using Fixation and Permeabilization Kit (eBioscience), and stained separately for Bcl-2, Bax, and cleaved-caspase-3.[8,9] Permeabilized cells were incubated with primary antibodies: mouse anti-human-Bcl-2 (DC21, sc-783, Santa Cruz Biotech. Inc.), mouse anti-human Bax (N20, sc-493, Santa Cruz Biotech. Inc.), and anti-cleaved caspase-3 (Cell signaling Technology 9661). Following antibody incubation, cells were washed and incubated with secondary Alexa 488-conjugated antibodies (ab185015, Abcam, United Kingdom) for 30 minutes. After an additional wash with PBS, flow cytometry analysis was performed.
(§5) Data were analyzed using FlowJo Software. The expression of Bcl-2 and Bax proteins was quantified as mean fluorescence intensity (MFI). The results were presented with bar graphs. Bax/Bcl-2 index was calculated using the formula […]. The percentage of cells expressing active caspase-3 (MFI) was presented in histograms.

[6] = tested on: Bax and Bcl-2 in HeLa cells; assay: Flow cytometric analysis of Bax and Bcl-2 expression, HeLa; settings: IC50 concentration, 48 h, from MFI
Procedure: as §4, §5

[7] = tested on: active caspase-3 in HCT-116 cells; assay: Flow cytometric analysis of active caspase-3, HCT-116; settings: IC50 concentration, 48 h, vs control
Procedure: as §4, §5

[8] = tested on: active caspase-3 in HeLa cells; assay: Flow cytometric analysis of active caspase-3, HeLa; settings: IC50 concentration, 48 h, vs control
Procedure: as §4, §5

[9] = tested on: mitochondrial membrane potential (ΔΨm) in HCT-116 cells; assay: Mitochondrial membrane potential (ΔΨm) JC-10 analysis, HCT-116; settings: IC50 concentration, 48 h
Procedure: (§6) Changes in the ΔΨm caused by 48 hours of enones treatment, were assessed using JC-10 dye.[10]. (Enzo Life Sciences, Farmingdale, NY, USA).
(§7) In healthy cells, JC-10 dye accumulates in the mitochondria as red fluorescent aggregates. However, upon cell damage, changes in ΔΨm occur and result in dislocation of JC-10 from the mitochondria to the cytosol and the monomerization of aggregates, shifting fluorescence from red to green. Cells were cultured in 24-well plate (3 × 10^4 cells per well) overnight in the incubator (5% CO2, 37 °C). […] Following treatment, cells were washed with warm 1xPBS and incubated with JC-10 dye (2.5 μM in warm PBS) at 5% CO2, 37 °C for 20 minutes. Cells were then washed with 1xPBS and observed using an Olympus IX50 inverted fluorescence microscope. Images were captured and analyzed using ImageJ software. The ratio of fluorescence emissions at 525 and 590 nm was used for quantification analysis.

[10] = tested on: mitochondrial membrane potential (ΔΨm) in HeLa cells; assay: Mitochondrial membrane potential (ΔΨm) JC-10 analysis, HeLa; settings: IC50 concentration, 48 h
Procedure: as §6, §7

[11] = tested on: cytochrome c in HCT-116 cells; assay: Cytochrome c localization by immunofluorescence, HCT-116; settings: IC50 concentration, 48 h
Procedure: After 48 hours of treatment, immunofluorescence analysis of cytochrome c distribution and expression in treated cells was performed using glass coverslips.[10] Following the treatment, cells were washed with PBS, fixed in 4% formaldehyde for 20 min, and permeabilized with 0.2% Tween-20. Blocking was performed using a buffer containing 0.1% Tween-20 and 10% FBS for 30 min. The cells were then incubated for 1 hour at room temperature with a monoclonal mouse anti-human cytochrome c antibody (1:100, G7421, Promega, USA,)
Subsequently, the cells were incubated for 30 minutes with a goat anti-mouse FITC (1:200, diluted in blocking buffer), washed, and images were acquired using an inverted fluorescence microscope (Olympus IX50). Image analysis was performed using ImageJ software.

HCT-116 cells [12] = assay: Cell cycle analysis (PI, flow cytometry), HCT-116; settings: IC50 concentration, 48 h; control 27.4%
Procedure: (§8) After treatment of HCT-116 and HeLa cells with enones, cells were harvested, washed with PBS, and fixed in 70% ice-cold ethanol at +4 °C overnight.[10] The cells were then pelleted, resuspended in 1 ml PBS containing RNAse A (12091021, Sigma Aldrich), and incubated for 30 min at 37 °C. A staining solution containing propidium iodide (1 mg PI per ml PBS) (B7758, Biotrend) was added to cells, followed by 15 min incubation in the dark. Cells were analyzed by flow cytometer Cytomics FC500. DNA content was determined using Flowing Software and cell cycle distribution was presented by graph (histograms).

HeLa cells [13] = assay: Cell cycle analysis (PI, flow cytometry), HeLa; settings: IC50 concentration, 48 h; control 29.9%
Procedure: as §8

Compound: COc1cc(/C=C/C(=O)C2CC2)ccc1OCC(=O)O [E4, (E)-2-(4-(3-Cyclopropyl-3-oxoprop-1-en-1-yl)-2-methoxyphenoxy)acetic acid]
- Selectivity index (SI) (HeLa cells [1]; 48 h): 4.97
- Cytotoxicity range (HeLa cells [1]; 48 h): 12.12–60.72%
- Selectivity index (SI) (HeLa cells [1]; 72 h): 19.41
- Cytotoxicity range (HeLa cells [1]; 72 h): 42.39–59.81%
- IC50 (HeLa cells [1]; 48 h): 20.1 ± 1.19 µM
- IC50 (HeLa cells [1]; 72 h): 4.12 ± 0.08 µM
- Cytotoxicity range (HCT-116 cells [2]; HCT-116, 48 h): 39.29–68.45%
- Selectivity index (SI) (HCT-116 cells [2]; HCT-116, 48 h): 10.62
- Cytotoxicity range (HCT-116 cells [2]; HCT-116, 72 h): 65.85–71.44%
- Selectivity index (SI) (HCT-116 cells [2]; HCT-116, 72 h): 40.00
- IC50 (HCT-116 cells [2]; HCT-116, 48 h): 9.42 ± 1.78 µM
- IC50 (HCT-116 cells [2]; HCT-116, 72 h): 2 ± 0.01 µM
- IC50 (MRC-5 cells; MRC5, MRC-5, 48 h): > 100 µM
- IC50 (MRC-5 cells; MRC5, MRC-5, 72 h): > 80 µM
- increase of percentage of apoptotic HCT-116 cells compared to control HCT-116 cells (HCT-116 cells [3]): 6.7 fold
- percentage of total apoptotic HCT-116 cells (sum of early and late) (HCT-116 cells [3]): 47.23%
- total percentage of apoptotic HeLa cells (HeLa cells [4]): 33.18%
- Bax/Bcl-2 ratio [5]: 1.4
- Bax/Bcl-2 ratio [6]: 1
- MFI of active caspase-3 in HCT-116 (fold change) [7]: 1.9 fold change
- MFI of active caspase-3 in HeLa (fold change) [8]: 1.6 fold change
- JC10-green/JC10 red ratio in HCT-116 cells [9]: 1.4
- JC10-green/JC10 red ratio in HeLa cells [10]: 1.2
- RELATIVE RATIO OF CYTOSOL CYTC TO MITOCHONDRIAL CYT C IN HCT-116 CELLS [11]: 0.9
- % OF HCT-116 CELLS, G2/M (HCT-116 cells [12]): 41.4%
- % OF HELA CELLS, G2/M (HeLa cells [13]): 61.9%
